What was measured:
Cyclooxygenase-2 = target: T1, Cyclooxygenase-2 (Canis lupus familiaris, UniProt Q8SPQ9)
T1 sequence (Q8SPQ9 whole entry): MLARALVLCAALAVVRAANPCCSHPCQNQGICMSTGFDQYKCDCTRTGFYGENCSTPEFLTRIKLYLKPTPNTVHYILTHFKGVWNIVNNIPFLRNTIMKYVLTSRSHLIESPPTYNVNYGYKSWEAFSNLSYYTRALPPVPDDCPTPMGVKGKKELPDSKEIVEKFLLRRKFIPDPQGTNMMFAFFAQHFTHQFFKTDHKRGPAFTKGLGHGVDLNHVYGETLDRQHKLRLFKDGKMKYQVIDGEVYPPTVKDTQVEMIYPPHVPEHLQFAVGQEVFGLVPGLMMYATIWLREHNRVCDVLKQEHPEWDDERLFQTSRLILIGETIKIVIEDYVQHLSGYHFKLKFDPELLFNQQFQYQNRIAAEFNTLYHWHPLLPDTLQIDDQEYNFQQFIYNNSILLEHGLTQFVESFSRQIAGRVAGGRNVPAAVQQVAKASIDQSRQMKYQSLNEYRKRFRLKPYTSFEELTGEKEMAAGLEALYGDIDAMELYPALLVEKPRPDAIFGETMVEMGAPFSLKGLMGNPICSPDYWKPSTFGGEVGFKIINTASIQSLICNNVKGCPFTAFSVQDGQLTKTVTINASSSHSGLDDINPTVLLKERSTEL
Description: Inhibition of COX2 by canine whole blood assay

Canis lupus familiaris = organism: Canis lupus familiaris; assay: Selectivity for COX1 over COX2 by canine whole blood assay
[1] = target: T2, Prostaglandin G/H synthase 1 (Canis lupus familiaris, UniProt Q8HZR1); assay: Inhibition of COX1 by canine whole blood assay; type: tissue-based
T2 sequence (Q8HZR1 whole entry): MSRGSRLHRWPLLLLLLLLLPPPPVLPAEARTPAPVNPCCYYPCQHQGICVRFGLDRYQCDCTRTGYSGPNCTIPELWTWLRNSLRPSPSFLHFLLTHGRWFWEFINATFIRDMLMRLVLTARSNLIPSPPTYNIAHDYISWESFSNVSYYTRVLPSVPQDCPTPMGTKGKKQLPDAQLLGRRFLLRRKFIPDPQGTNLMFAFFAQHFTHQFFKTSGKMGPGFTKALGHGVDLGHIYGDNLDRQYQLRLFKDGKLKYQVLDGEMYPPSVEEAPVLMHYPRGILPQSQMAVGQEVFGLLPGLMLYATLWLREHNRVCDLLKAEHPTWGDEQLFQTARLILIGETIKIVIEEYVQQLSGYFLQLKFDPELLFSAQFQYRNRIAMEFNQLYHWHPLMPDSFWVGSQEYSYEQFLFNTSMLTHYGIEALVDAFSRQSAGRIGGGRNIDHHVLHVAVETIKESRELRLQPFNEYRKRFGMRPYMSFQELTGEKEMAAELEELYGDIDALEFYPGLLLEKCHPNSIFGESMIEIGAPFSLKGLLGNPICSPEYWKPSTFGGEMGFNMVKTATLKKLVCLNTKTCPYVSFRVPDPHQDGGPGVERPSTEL

Canis familiaris [2] = assay: AUC in Beagle dog at 2 mg/kg, po; type: ADME, organism-based, Canis lupus familiaris, Plasma; parameters: dose 2 mg/kg, route oral; conditions: in vivo
[3] = Cmax in Beagle dog at 2 mg/kg, po; type: ADME, organism-based, Canis lupus familiaris; parameters: dose 2 mg/kg, route oral; conditions: in vivo
[4] = Tmax in Beagle dog at 2 mg/kg, po; type: ADME, organism-based, Canis lupus familiaris; parameters: dose 2 mg/kg, route oral; conditions: in vivo
[5] = Half life in Beagle dog at 2 mg/kg, po; type: ADME, organism-based, Canis lupus familiaris; parameters: dose 2 mg/kg, route oral; conditions: in vivo
[6] = Cmax in Beagle dog at 5 mg/kg, po; type: ADME, organism-based, Canis lupus familiaris; parameters: dose 5 mg/kg, route oral; conditions: in vivo
[7] = Tmax in Beagle dog at 5 mg/kg, po; type: ADME, organism-based, Canis lupus familiaris; parameters: dose 5 mg/kg, route oral; conditions: in vivo
[8] = Half life in Beagle dog at 5 mg/kg, po; type: ADME, organism-based, Canis lupus familiaris; parameters: dose 5 mg/kg, route oral; conditions: in vivo
Canis familiaris [9] = organism: Canis familiaris; conditions: dog, in vivo, po, 5 mg/kg
Description: AUC in Beagle dog at 5 mg/kg, po

Compound	IC50 (Cyclooxygenase-2) [nM]	Ratio (Canis lupus familiaris)	IC50 [1] [nM]	further results
CS(=O)(=O)c1ccc(-n2nc(C(F)(F)F)c(C#N)c2OC2CCC2)nc1	550	46.3	25300	–
CC(C)Oc1c(Cl)c(C(F)(F)F)nn1-c1ccc(S(C)(=O)=O)cn1	> 500	–	–	–
C[C@@H]1CN(c2c(C#N)c(C(F)F)nn2-c2ccc(S(C)(=O)=O)cn2)C[C@H](C)O1	140	> 357	> 50000	AUC (Canis familiaris [2]): 4830 ng·h/mL
CCC(CC)Oc1c(C)c(C(F)(F)F)nn1-c1ccc(S(C)(=O)=O)cn1	> 500	–	–	–
COc1cc(C(F)(F)F)nn1-c1ccc(S(C)(=O)=O)cn1	> 500	–	–	–
CS(=O)(=O)c1ccc(-n2nc(C(F)(F)F)c(C#N)c2Oc2cccc3c2CCCC3)nc1	900	0.1	100	–
CS(=O)(=O)c1ccc(-n2nc(C(F)(F)F)c(C#N)c2Oc2ccccc2)nc1	> 500	–	–	–
CS(=O)(=O)c1ccc(-n2nc(C(F)(F)F)cc2OCc2ccccc2)nc1	> 500	–	–	–
CCCCOc1cc(C(F)(F)F)nn1-c1ccc(S(C)(=O)=O)cn1	> 500	–	–	–
CC(C)COc1cc(C(F)(F)F)nn1-c1ccc(S(C)(=O)=O)cn1	4100	–	–	–
Cc1c(C(F)(F)F)nn(-c2ccc(S(C)(=O)=O)cn2)c1OC(C)C	> 500	–	–	–
CCC(CC)Oc1cc(C(F)(F)F)nn1-c1ccc(S(C)(=O)=O)cn1	19600	–	–	–
CCCC(C)Oc1c(C#N)c(C(F)(F)F)nn1-c1ccc(S(C)(=O)=O)cn1 (stereo not drawn)	> 500	–	–	–
Cc1c(C(F)(F)F)nn(-c2ccc(S(C)(=O)=O)cn2)c1OCC(C)C	> 500	–	–	–
CS(=O)(=O)c1ccc(-n2nc(C(F)(F)F)cc2OCC2CC2)nc1	> 500	–	–	–
CS(=O)(=O)c1ccc(-n2nc(C(F)(F)F)c(C#N)c2OC2CCOC2)nc1 (stereo not drawn)	> 500	–	–	–
CS(=O)(=O)c1ccc(-n2nc(C(F)(F)F)cc2OCc2ccncc2)nc1	> 500	–	–	–
CC(C)Oc1cc(C(F)(F)F)nn1-c1ccc(S(C)(=O)=O)cn1	> 500	–	–	Cmax [6]: 679 ng/mL; Tmax [7]: 0.8 h; half-life [8]: 34.8 h; AUC (Canis familiaris [9]): 6980 ng·h/mL
CS(=O)(=O)c1ccc(-n2nc(C(F)(F)F)cc2OC2CCCC2)nc1	> 500	–	–	–
CS(=O)(=O)c1ccc(-n2nc(C(F)(F)F)cc2OC2CCCCC2)nc1	> 500	–	–	–
CCC(COC)Oc1c(C#N)c(C(F)(F)F)nn1-c1ccc(S(C)(=O)=O)cn1 (stereo not drawn)	> 500	–	–	–
CS(=O)(=O)c1ccc(-n2nc(C(F)(F)F)cc2OCc2cccc3ccccc23)nc1	> 500	–	–	–
CS(=O)(=O)c1ccc(-n2nc(C(F)(F)F)cc2OCc2cccc(F)c2)nc1	> 500	–	–	–

More lines, main results first:

IC50 (Cyclooxygenase-2) [nM]	Ratio (Canis lupus familiaris)	IC50 [1] [nM]	Compound	further results
210	–	–	CS(=O)(=O)c1ccc(-n2nc(C(F)(F)F)c(C#N)c2OC2CCCC2)nc1	–
170	11.8	2000	CCOCCSc1c(C#N)c(C(F)(F)F)nn1-c1ccc(S(C)(=O)=O)cn1	–
70	117	8000	CS(=O)(=O)c1ccc(-n2nc(C(F)(F)F)c(C#N)c2OC2CCCCCC2)nc1	–
< 50	> 29.5	1500	CCC(C)Sc1c(C#N)c(C(F)(F)F)nn1-c1ccc(S(C)(=O)=O)cn1 (stereo not drawn)	–
80	12.1	900	CS(=O)(=O)c1ccc(-n2nc(C(F)(F)F)c(C#N)c2SCc2ccccc2)nc1	–
400	8.1	3300	CC(C)CCCSc1c(C#N)c(C(F)(F)F)nn1-c1ccc(S(C)(=O)=O)cn1	–
< 50	> 3.8	200	CCCSc1c(C#N)c(C(F)(F)F)nn1-c1ccc(S(C)(=O)=O)cn1	–
170	0.3	100	Cc1cccc(Oc2c(C#N)c(C(F)(F)F)nn2-c2ccc(S(C)(=O)=O)cn2)c1C	–
40	18.4	600	CS(=O)(=O)c1ccc(-n2nc(C(F)(F)F)c(C#N)c2SCc2ccccc2F)nc1	–
140	78	10600	CS(=O)(=O)c1ccc(-n2nc(C(F)(F)F)c(C#N)c2OCC2CC=CCC2)nc1 (stereo not drawn)	Cmax [3]: 363 ng/mL; Tmax [4]: 1 h; AUC (Canis familiaris [2]): 742 ng·h/mL; half-life [5]: 2 h
90	127	11800	CC(C)C(C)Oc1c(C#N)c(C(F)(F)F)nn1-c1ccc(S(C)(=O)=O)cn1 (stereo not drawn)	–
100	31.2	3200	CS(=O)(=O)c1ccc(-n2nc(C(F)(F)F)c(C#N)c2SC2CCCCC2)nc1	–
60	3.6	200	CS(=O)(=O)c1ccc(-n2nc(C(F)(F)F)c(C#N)c2Sc2ccccc2)nc1	–
170	> 287	> 50000	CCC(Oc1c(C#N)c(C(F)(F)F)nn1-c1ccc(S(C)(=O)=O)cn1)C(C)C (stereo not drawn)	–
< 500	–	–	CCC(CC)Oc1c(C#N)c(C(F)(F)F)nn1-c1ccc(S(C)(=O)=O)cn1	–
160	47	7600	CC1CCC(Oc2c(C#N)c(C(F)(F)F)nn2-c2ccc(S(C)(=O)=O)cn2)C1 (stereo not drawn)	–
110	92	10000	CC(C)COc1c(C#N)c(C(F)(F)F)nn1-c1ccc(S(C)(=O)=O)cn1	–
< 90	340	29700	C=C1CCC(COc2c(C#N)c(C(F)(F)F)nn2-c2ccc(S(C)(=O)=O)cn2)CC1	–
200	35	7100	CC1CCCCC1Oc1c(C#N)c(C(F)(F)F)nn1-c1ccc(S(C)(=O)=O)cn1 (stereo not drawn)	–
300	11.7	3500	CCCCCSc1c(C#N)c(C(F)(F)F)nn1-c1ccc(S(C)(=O)=O)cn1	–
60	6.8	400	CS(=O)(=O)c1ccc(-n2nc(C(F)(F)F)c(C#N)c2OCC2CCCC2)nc1	–
80	–	–	CS(=O)(=O)c1ccc(-n2nc(C(F)(F)F)c(C#N)c2OCC2CCC2)nc1	–
